Measured values: ChEMBL document CHEMBL1201862, “PubChem BioAssay data set” (2004)
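Exposure lasted 48 hours, with cells grown in 96-well plates and compounds tested at five concentrations. GI50 = concentration required for 50% inhibition of growth.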 Calls of active or inactive are those of the source. Cut-off read from the data, not from the text of the source: active = GI50 up to about 1.1 µM and inactive = higher.

Key:
Experiment in all cases: NCI tumour cell line growth inhibition, 48 h
COLO 205 = test system: COLO 205
OVCAR-4 = test system: OVCAR-4
NCI-H23 = test system: NCI-H23
SR = test system: SR
HCC 2998 = test system: HCC 2998
PC-3 = test system: PC-3
MOLT-4 = test system: MOLT-4
TK-10 = test system: TK-10
U-251 = test system: U-251
HOP-62 = test system: HOP-62
OVCAR-5 = test system: OVCAR-5
UACC-257 = test system: UACC-257
SK-MEL-2 = test system: SK-MEL-2
CAKI-1 = test system: CAKI-1
HT-29 = test system: HT-29
HCT-116 = test system: HCT-116
M14 = test system: M14
SF-539 = test system: SF-539
Hs-578T = test system: Hs-578T
HL-60 = test system: HL-60

Measured: GI50

Cc1ccc(Nc2nnc(-c3ccc4c(c3)OCO4)o2)c(C)c1
inactive: COLO 205 > 100 µM | OVCAR-4 > 100 µM | NCI-H23 > 100 µM | SR 31.1 µM | HCC 2998 > 100 µM | PC-3 50.1 µM | MOLT-4 1.71 µM | TK-10 > 100 µM | U-251 39.2 µM | HOP-62 > 100 µM | OVCAR-5 > 100 µM | UACC-257 > 100 µM | SK-MEL-2 > 100 µM | CAKI-1 > 100 µM | HT-29 > 100 µM | HCT-116 > 100 µM | M14 > 100 µM | SF-539 64.6 µM | Hs-578T > 100 µM

O=C(O)C(Br)C(Br)C(=O)O (configuration not stated)
inactive: HL-60 > 100 µM | COLO 205 > 100 µM | OVCAR-4 > 100 µM | NCI-H23 > 100 µM | SR 28.2 µM | HCC 2998 > 100 µM | PC-3 > 100 µM | TK-10 > 100 µM | U-251 > 100 µM | HOP-62 > 100 µM | OVCAR-5 > 100 µM | UACC-257 > 100 µM | SK-MEL-2 > 100 µM | CAKI-1 > 100 µM | HT-29 > 100 µM | HCT-116 > 100 µM | M14 > 100 µM | SF-539 > 100 µM | Hs-578T > 100 µM

O=C1NC(=O)/C(=C/c2ccc(S(=O)(=O)N/N=C\C(O)C(O)C(O)C(O)CO)cc2)N1 (configuration not stated)
inactive: HL-60 > 100 µM | COLO 205 > 100 µM | OVCAR-4 > 100 µM | NCI-H23 > 100 µM | SR > 100 µM | HCC 2998 > 100 µM | PC-3 > 100 µM | MOLT-4 > 100 µM | TK-10 > 100 µM | U-251 > 100 µM | HOP-62 > 100 µM | OVCAR-5 > 100 µM | UACC-257 > 100 µM | SK-MEL-2 > 100 µM | CAKI-1 > 100 µM | HT-29 > 100 µM | HCT-116 > 100 µM | M14 > 100 µM | Hs-578T > 100 µM

O=C1O/C(=C(/Cl)c2cccc3ccccc23)c2ccccc21
inactive: HL-60 > 100 µM | COLO 205 > 100 µM | OVCAR-4 > 100 µM | NCI-H23 > 100 µM | SR > 100 µM | HCC 2998 > 100 µM | PC-3 > 100 µM | MOLT-4 > 100 µM | TK-10 > 100 µM | U-251 96.8 µM | HOP-62 46.3 µM | OVCAR-5 > 100 µM | UACC-257 > 100 µM | CAKI-1 > 100 µM | HT-29 > 100 µM | HCT-116 > 100 µM | M14 > 100 µM | SF-539 > 100 µM | Hs-578T 32.4 µM

[O-][S+]1SC(=S)C2C=CC=NC21 (configuration not stated)
inactive: HL-60 > 100 µM | COLO 205 21.3 µM | OVCAR-4 > 100 µM | NCI-H23 18.6 µM | SR 11.5 µM | HCC 2998 15.5 µM | PC-3 16.8 µM | MOLT-4 16.4 µM | TK-10 18.1 µM | U-251 18 µM | OVCAR-5 15.3 µM | UACC-257 15.4 µM | SK-MEL-2 19.4 µM | CAKI-1 > 100 µM | HT-29 16.1 µM | HCT-116 13.7 µM | M14 15.3 µM | SF-539 16 µM | Hs-578T 20.7 µM

C/N=C(\Nc1cccc(C(F)(F)F)c1)SCc1ccc(N=C=S)cc1
inactive: HL-60 40.6 µM | COLO 205 16.6 µM | OVCAR-4 13.3 µM | NCI-H23 16.3 µM | SR 4.34 µM | HCC 2998 15.6 µM | PC-3 15.9 µM | MOLT-4 11.5 µM | TK-10 11.4 µM | U-251 15.8 µM | HOP-62 17.5 µM | OVCAR-5 16.5 µM | UACC-257 14.3 µM | SK-MEL-2 12.3 µM | CAKI-1 16.5 µM | HT-29 15.6 µM | HCT-116 15.5 µM | SF-539 17.5 µM | Hs-578T 14.7 µM

Cc1cc(NS(=O)(=O)c2ccc(Nc3c4ccccc4nc4c(C(=O)NCCO)cccc34)cc2)no1
inactive: HL-60 37.9 µM | COLO 205 32.9 µM | OVCAR-4 29 µM | NCI-H23 39.2 µM | SR 22.5 µM | HCC 2998 40.7 µM | PC-3 39.2 µM | MOLT-4 7.41 µM | TK-10 35.6 µM | U-251 27.7 µM | HOP-62 32.9 µM | OVCAR-5 13.3 µM | UACC-257 75.3 µM | SK-MEL-2 22.2 µM | CAKI-1 26.1 µM | HT-29 29 µM | M14 29 µM | Hs-578T 21.2 µM

COc1ccccc1-c1nc(O)c2ccccc2n1
inactive: COLO 205 > 100 µM | OVCAR-4 > 100 µM | NCI-H23 > 100 µM | SR > 100 µM | HCC 2998 > 100 µM | PC-3 > 100 µM | MOLT-4 > 100 µM | U-251 > 100 µM | HOP-62 > 100 µM | OVCAR-5 > 100 µM | UACC-257 > 100 µM | SK-MEL-2 > 100 µM | CAKI-1 > 100 µM | HCT-116 > 100 µM | M14 > 100 µM | Hs-578T > 100 µM

CONC(C)=O
inactive: HL-60 > 100 µM | COLO 205 > 100 µM | NCI-H23 > 100 µM | SR > 100 µM | HCC 2998 > 100 µM | PC-3 > 100 µM | MOLT-4 > 100 µM | TK-10 > 100 µM | U-251 > 100 µM | HOP-62 > 100 µM | OVCAR-5 > 100 µM | UACC-257 > 100 µM | SK-MEL-2 > 100 µM | CAKI-1 > 100 µM | HT-29 > 100 µM | HCT-116 > 100 µM | M14 > 100 µM | SF-539 > 100 µM | Hs-578T > 100 µM

COc1cc(CNNC(N)=S)cc(OC)c1OC
inactive: HL-60 > 100 µM | COLO 205 > 100 µM | NCI-H23 > 100 µM | SR > 100 µM | HCC 2998 > 100 µM | PC-3 > 100 µM | MOLT-4 > 100 µM | TK-10 > 100 µM | U-251 > 100 µM | HOP-62 90.6 µM | OVCAR-5 95.1 µM | UACC-257 > 100 µM | CAKI-1 6.27 µM | HT-29 > 100 µM | HCT-116 > 100 µM | M14 > 100 µM | SF-539 > 100 µM | Hs-578T > 100 µM

CN(C(=O)C1=CCCCCC1)c1ccccc1I
inactive: HL-60 13.7 µM | COLO 205 15.8 µM | OVCAR-4 18.2 µM | NCI-H23 38.2 µM | SR 39 µM | HCC 2998 45.9 µM | PC-3 35 µM | MOLT-4 49.3 µM | U-251 44.9 µM | HOP-62 63.4 µM | OVCAR-5 > 100 µM | UACC-257 44.6 µM | SK-MEL-2 32.4 µM | CAKI-1 64.4 µM | HCT-116 25.9 µM | M14 31.6 µM | Hs-578T 1.27 µM
